Experimental data published in patent US12268672B2, “PPARδ activator” (JAPAN SCIENCE AND TECHNOLOGY AGENCY, priority 2018, dated 2025).
Where a name gives a salt, the structure may show the parent alone.

What was measured:
[1] = test system: angptl4, pdk4 and cpt1a genes; assay: Quantitative PCR of genes whose expression is induced by PPARδ in C2C12 cells; type: cell-based, mouse; details: 10 μM compound (A-4), 16 hours, relative to Hprt, n=3
Procedure: The effect of compound (A-4) on the expression of the gene whose expression is induced by PPARδ was investigated. Specifically, compound (A-4) was added to mouse skeletal muscle-derived myoblast cell line C2C12 cells, and the expression levels of the angptl4, pdk4 and the cpt1a genes, whose expression is induced by PPARδ (NPL 12), were measured. In addition, the Hprt gene was used as an endogenous control, and GW0742 was used as a positive control for PPARδ activation.
First, C2C12 cells were seeded on a 24-well plate (1×10^5 cells/well) and cultured until 80-90% confluent. DMEM containing 10% bovine serum and 1% antibiotic was used as the culture medium. After culturing for 36 hours, when the target cell density was reached, the entire medium was replaced with a serum-free DMEM medium containing each concentration of compound (A-4), and the cells were cultured for 16 hours (n=3). After culturing, the medium was discarded, a trizol reagent (manufactured by Invitrogen) for RNA extraction was directly added to each well to lyse the cells, and then the total RNA was extracted by ethanol precipitation. Using the obtained total RNA as a template, cDNA was synthesized using the reverse transcriptase “Superscript” (manufactured by […]).
Quantitative PCR was performed using the obtained cDNA as a template. The cDNA of the template, the primer that amplifies each gene to be measured, and the polymerase mix “ssoFast EvaGreen Supermix” (manufactured by Biorad) for quantitative PCR were mixed. Analysis was performed using a real-time PCR detection system “CFX connect (registered trademark)” (manufactured by Biorad).
From the obtained gene expression data, the expression level of each gene was divided by the expression level of the endogenous control gene to calculate the relative expression level.

[2] = test system: recruitment of PPARδ to PPRE; assay: Chromatin immunoprecipitation of FLAG-PPARδ in differentiated C2C12-PPARδ cells; type: cell-based, mouse; details: 100 μM metformin or 1 μM GW501516, day 6 of differentiation, IgG control set as 1
Procedure: First, C2C12-PPARδ cells, in which FLAG-tagged PPARδ (FLAG-PPARδ) was constitutively over-expressed in C2C12 cells were prepared. […] The treated cells were subjected to chromatin immunoprecipitation (Conventional ChIP) using an antibody that recognizes the FLAG tag.

C2C12 cells = assay: Oxygen consumption rate (OCR) of C2C12 cells, extracellular flux analyzer; type: cell-based, mouse; details: 100 μM metformin or 10 μM GW501516 for 24 hours; for OCR after FCCP addition: compared to DMSO-treated cells
Procedure: PPARδ is known to induce the expression of lipid metabolism-related genes and enhance β-oxidation of fatty acids, especially in skeletal muscle. The PPARδ agonist is expected to have an effect of increasing mitochondrial activity. […] Specifically, using C2C12 cells, the oxygen consumption rate (OCR: Oxygen Consumption Rate) of the cells was measured by a cell metabolism-measuring device (extracellular flux analyzer manufactured by Agilemt Technologies Inc.).
In this metabolic measurement, four inhibitors were used to force changes in intracellular metabolism (FIG. 14). First, oligomycin, which inhibits Complex V of the electron transport chain, was added. […] Next, the uncoupling agent FCCP (Carbonyl cyanide-p-trifluoromethoxyphenylhydrazone) was added. FCCP forcibly discharges hydrogen ions in the mitochondrial membrane to the outside of the membrane to eliminate the proton concentration gradient. Since a proton concentration gradient is required to produce ATP, the TCA cycle and electron transport chain are maximally activated when the gradient is forcibly eliminated by FCCP. This makes it possible to measure the maximum respiration rate of cells. It is known that OCR at this time is further increased in cells in which fatty acid oxidation is enhanced. Finally, rotenone and antimycin were added. Rotenone inhibits the electron transport chain complex I, and antimycin inhibits complex III.

CV1 cells = assay: Cell death observed in the CV1 luciferase assay; type: cell-based; details: transcription activity impossible to measure
Procedure: Specifically, CV1 cells, which are cultured cells derived from African green monkey kidneys, were seeded on a 24-well plate (1×10^5 cells/well) and cultured until they became 70% confluent. DMEM containing 10% fetal bovine serum and 1% antibiotic was used as the culture medium. After reaching the desired cell density, the entire medium was removed, and a mixture obtained by mixing 2 μL of MH2004 (plasmid encoding a firefly luciferase gene having a Gal4 activation sequence upstream: 100 ng/μL), 1 μL of pRL-CMV (plasmid encoding the Renilla reniformis luciferase gene directly under the CMV promoter: 100 ng/μL), 2 μL of GAL4-Ppard (plasmid encoding Gal4-DNA binding region fused with PPARδ gene: 100 ng/μL) and 1.5 μL of PEI (polyethylenimine: manufactured by Invitrogen) with 45 μL culture medium “Opti-MEM” (registered trademark) (manufactured by Thermo Fisher Scientific) was added to each well, and the cells were cultured for about 36 hours.
The effect of the obtained compound (A-4) on PPARδ activity was investigated. Specifically, a luciferase assay was carried out in the same manner as in Example 8 except that compound (A-4) dissolved in DMSO (0.1%) was added to the reaction system as a test substance (n=3). […] However, when the addition amount was 50 μM or more, the cells died and it was impossible to measure the transcription activity of PPARδ.

PPARδ = assay: Luciferase assay with GAL4-Ppard and MH2004 reporter in CV1 cells; type: cell-based; details: for Light emission intensity (RLU) Average: 10 μM of each compound in DMSO, 12 hours; for Relative emission intensity Average: 10 μM of each compound, DMSO control defined as 1, n=3
Procedure: Among the compounds (1-1-4), the effects of compound (B-1), compound (B-2), and compound (B-3) on the transcriptional regulation of PPARδ were investigated. The effects on the transcriptional activity of PPARδ were measured by performing a luciferase assay on the cells treated with 10 μM of each compound dissolved in DMSO. Specifically, CV1 cells, which are cultured cells derived from African green monkey kidneys, were seeded on a 24-well plate (1×10^5 cells/well) and cultured until they became 70% confluent. DMEM containing 10% fetal bovine serum and 1% antibiotic was used as the culture medium. […] Then, the collected cells were lysed in a cell lysis buffer, suspended with a luminescent substrate (firefly luciferin), and the luminescence of the suspension was measured with a luminometer. In addition, the remaining suspension was mixed with Renilla luciferin and the amount of luminescence was measured with a luminometer. The result of the amount of light emitted by Renilla luciferin was used as the intrinsic control of gene transfer. Finally, the amount of luminescence of firefly luciferin was calculated as a light emission intensity (RLU) by dividing by the amount of luminescence of Renilla luciferin. The relative emission intensity of the reaction solution treated with each compound was determined as the transcriptional activation ability of PPARδ in each compound treatment, where the light emission intensity of the reaction solution to which an equal amount of DMSO was added (control) was defined as 1. The relative emission intensities were all 1.1 or more in the reaction solutions to which the compounds were added, and the transcriptional activity of PPARδ was increased. […] The effect of the obtained compound (A-4) on PPARδ activity was investigated. […] However, when the addition amount was 50 μM or more, the cells died and it was impossible to measure the transcription activity of PPARδ.

endogenous PPARα = biological target: T1, endogenous PPARα (Homo sapiens, UniProt Q07869); assay: Affinity purification using Met-beads and HepG2 cell extract, binding to PPARα; details: HepG2 cell extract
T1 construct: endogenous in cells; host or cells: HepG2
T1 sequence (Q07869 1-468): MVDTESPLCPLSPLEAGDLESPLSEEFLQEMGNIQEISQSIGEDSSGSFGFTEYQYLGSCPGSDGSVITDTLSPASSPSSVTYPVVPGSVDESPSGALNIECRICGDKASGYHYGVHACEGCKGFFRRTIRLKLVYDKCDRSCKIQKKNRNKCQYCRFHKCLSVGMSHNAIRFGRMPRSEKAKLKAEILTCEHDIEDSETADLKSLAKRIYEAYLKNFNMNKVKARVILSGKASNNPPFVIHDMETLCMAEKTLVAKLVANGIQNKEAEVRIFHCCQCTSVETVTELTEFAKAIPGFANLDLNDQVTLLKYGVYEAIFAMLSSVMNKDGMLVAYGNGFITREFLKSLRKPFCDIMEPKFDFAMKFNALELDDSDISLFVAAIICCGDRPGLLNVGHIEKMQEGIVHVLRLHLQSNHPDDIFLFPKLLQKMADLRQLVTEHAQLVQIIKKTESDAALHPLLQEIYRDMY
Procedure: […] is a member of the nuclear receptor superfamily, with PPARα and […] as the other two family members. Affinity purification was performed using the Met-beads and HepG2 cell extract to verify the binding to endogenous PPARα.

human PPARδ = human PPARδ (Homo sapiens, UniProt Q03181); details: in the presence of PPARδ complex (hPPARδ, PGC1α, RXRα)
human PPARδ, sequence (Q03181 whole entry): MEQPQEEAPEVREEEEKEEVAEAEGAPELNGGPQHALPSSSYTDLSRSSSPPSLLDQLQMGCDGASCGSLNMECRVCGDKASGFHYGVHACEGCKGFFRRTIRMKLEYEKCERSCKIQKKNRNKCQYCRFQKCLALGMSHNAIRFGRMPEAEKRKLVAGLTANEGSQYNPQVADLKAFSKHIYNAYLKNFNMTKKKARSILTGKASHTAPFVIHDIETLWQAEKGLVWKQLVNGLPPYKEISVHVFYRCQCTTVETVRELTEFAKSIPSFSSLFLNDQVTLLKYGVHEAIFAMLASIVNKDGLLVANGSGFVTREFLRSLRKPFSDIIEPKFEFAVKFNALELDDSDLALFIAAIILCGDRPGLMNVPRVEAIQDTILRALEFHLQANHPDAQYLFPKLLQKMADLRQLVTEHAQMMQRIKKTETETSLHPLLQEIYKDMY
human PPARδ, sequence (P19793 whole entry partner): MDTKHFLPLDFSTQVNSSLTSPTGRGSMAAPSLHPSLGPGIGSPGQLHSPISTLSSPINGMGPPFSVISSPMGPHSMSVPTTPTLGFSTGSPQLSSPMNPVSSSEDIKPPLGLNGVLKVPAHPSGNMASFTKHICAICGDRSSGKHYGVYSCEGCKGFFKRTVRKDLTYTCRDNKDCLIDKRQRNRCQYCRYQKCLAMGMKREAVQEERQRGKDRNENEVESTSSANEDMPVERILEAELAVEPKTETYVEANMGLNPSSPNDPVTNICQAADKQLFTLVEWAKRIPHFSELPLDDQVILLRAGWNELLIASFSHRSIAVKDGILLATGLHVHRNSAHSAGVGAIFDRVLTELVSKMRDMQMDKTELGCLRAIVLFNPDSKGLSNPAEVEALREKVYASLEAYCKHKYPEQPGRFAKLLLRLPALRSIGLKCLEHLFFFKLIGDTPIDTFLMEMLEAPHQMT
human PPARδ, sequence (Q9UBK2 whole entry partner): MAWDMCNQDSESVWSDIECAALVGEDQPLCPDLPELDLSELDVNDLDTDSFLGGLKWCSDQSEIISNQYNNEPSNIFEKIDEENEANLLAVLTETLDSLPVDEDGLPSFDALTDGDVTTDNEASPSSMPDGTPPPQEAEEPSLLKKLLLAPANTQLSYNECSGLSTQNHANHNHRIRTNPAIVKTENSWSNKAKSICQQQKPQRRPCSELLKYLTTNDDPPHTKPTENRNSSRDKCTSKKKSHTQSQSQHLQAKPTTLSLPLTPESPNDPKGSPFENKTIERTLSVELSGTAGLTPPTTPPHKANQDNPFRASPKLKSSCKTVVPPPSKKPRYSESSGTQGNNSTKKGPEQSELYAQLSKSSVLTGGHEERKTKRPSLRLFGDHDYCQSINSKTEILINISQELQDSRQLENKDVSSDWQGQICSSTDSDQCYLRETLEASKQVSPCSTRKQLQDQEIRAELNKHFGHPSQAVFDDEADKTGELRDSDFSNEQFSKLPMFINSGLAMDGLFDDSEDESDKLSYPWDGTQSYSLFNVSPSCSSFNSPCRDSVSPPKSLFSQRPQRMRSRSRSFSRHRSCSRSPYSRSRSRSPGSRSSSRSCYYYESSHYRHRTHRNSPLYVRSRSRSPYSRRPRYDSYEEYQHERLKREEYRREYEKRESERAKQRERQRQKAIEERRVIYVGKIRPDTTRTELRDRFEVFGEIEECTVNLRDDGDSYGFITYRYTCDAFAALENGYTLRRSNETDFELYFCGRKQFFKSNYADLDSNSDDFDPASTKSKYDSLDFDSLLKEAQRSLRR

endogenous AMPK = assay: Affinity purification using Met-beads and HepG2 cell extract, binding to AMPK; set-up: species or system human; details: HepG2 cell extract
C57BL/6 mice = assay: Final exercise tolerance test on treadmill (NOS50); type: in vivo; details: 25 mg/kg intraperitoneal
Procedure: For the metformin-non-administered group, an equal volume of PBS was intraperitoneally administered instead of the metformin/PBS solution.
The training for the final exercise tolerance test, in which the speed at start was 15 m/min and increased by 1 m/min every 10 minutes, and the running time after the speed reached 20 m/min was 10 minutes (1 hour in total), was performed 5 times a week for a total of 4 weeks using a treadmill device.
First, twenty 10-week-old male C57BL/6 mice were divided into 4 groups (5 mice per group). […] In addition, in order to average the motivation for exercise and exercise preference of individual mice in each group, the first exercise tolerance test was performed after training acclimatization to rank the mice, and the mice were divided into 4 groups so that the test results were even. Furthermore, in the test after the training period, the exercise tolerance was evaluated in such a manner that the running time was set as the time until the number of electrode contacts during the test reached 50 (number of shocks: NOS50), the speed at the start was set as 15 m/min and increased by 1 m/min every 10 minutes, and when the speed reached the maximum speed of 30 m/min, the running at the maximum speed was performed until NOS50 was reached.

Compound	expression level of the angptl4 gene [1]	expression level of the cpt1a gene [1]	expression level of the pdk4 gene [1]	base OCR before the inhibitor treatment (C2C12 cells)	OCR after FCCP addition (C2C12 cells)	Light emission intensity (RLU) Average (PPARδ; n=3)	Relative emission intensity Average (PPARδ)	also measured
Cc1cc(SCc2sc(-c3ccc(C(F)(F)F)c(F)c3)nc2C)ccc1OCC(=O)O [GW0742]	increased	increased	increased	–	–	–	–	–
Cc1cc(SCc2sc(-c3ccc(C(F)(F)F)cc3)nc2C)ccc1OCC(=O)O [GW501516]	–	–	–	did not change	increase in OCR	–	–	recruitment of PPARδ in the vicinity of PPRE on promoters of Angptl4, Pdk4, Plin2 and Ucp3 genes [2]: recruited
Cc1cc(SCc2sc(-c3ccc(C(F)(F)F)c(F)c3)nc2C)ccc1CNC(=N)N [compound (A-4), 1-{4-[({2-[3-fluoro-4-(trifluoromethyl)phenyl]4-methylthiazole-5-yl}methyl)thio]-2-methylbenzyl}guanidine]	increased	increased	increased	–	–	–	–	addition amount at which the cells died (CV1 cells): ≥ 50 µM; transcriptional activity of PPARδ (relative transcriptional activation ability) (PPARδ; depending on the amount added, DMSO (0.1%), n=3): tended to increase
N=C(N)NCc1ccc(COCc2ccccc2)cc1 [compound (B-1), N-({4-[(benzyloxy)methyl]phenyl}methyl) guanidine hydrobromide]	–	–	–	–	–	250467	1.12	–
COc1cc(CNC(=N)N)ccc1OCc1ccccc1 [compound (B-3)]	–	–	–	–	–	457033	2.04	–
CN(C)C(=N)N=C(N)N [metformin]	–	–	–	did not change	increase in OCR	–	–	binding between metformin and PPARα (endogenous PPARα): not detected; activation ability compared with GW501516 (human PPARδ): about the same as that of GW501516; binding between metformin and AMPK (endogenous AMPK): not detected; exercise tolerance, metformin administration without training (C57BL/6 mice; 4 weeks, compared with control group): did not show an improvement in exercise tolerance; exercise tolerance, training + metformin administration (C57BL/6 mice; training 5 times a week for 4 weeks, compared with training group): higher exercise tolerance than the training group
